Reference: US12227500B2, “Substituted pyrrolo[2,3-b]pyridines for suppressing toxic endoplasmic reticulum stress” (THE TRUSTEES OF COLUMBIA UNIVERSITY IN THE CITY OF NEW YORK, priority 2018, dated 2025)
Like-named read-outs stand apart in the source and are kept apart here.

Assays:
HGK/MAP4K4 = HGK/MAP4K4 (Homo sapiens, UniProt O95819); assay: Radiolabeled ATP kinase assay (Reaction Biology Corp.), HGK; assay type: biochemical; parameters: purchased Reaction Biology Corp; details: 10 μM ATP, read-out: % Enzyme Activity (relative to DMSO controls), HGK/MAP4K4, Data 1; for remaining activity at 0.025 µM: [Cmpd] 0.025 μM; for remaining activity at 0.1 µM: [Cmpd] 0.1 μM
HGK/MAP4K4, sequence (O95819 whole entry): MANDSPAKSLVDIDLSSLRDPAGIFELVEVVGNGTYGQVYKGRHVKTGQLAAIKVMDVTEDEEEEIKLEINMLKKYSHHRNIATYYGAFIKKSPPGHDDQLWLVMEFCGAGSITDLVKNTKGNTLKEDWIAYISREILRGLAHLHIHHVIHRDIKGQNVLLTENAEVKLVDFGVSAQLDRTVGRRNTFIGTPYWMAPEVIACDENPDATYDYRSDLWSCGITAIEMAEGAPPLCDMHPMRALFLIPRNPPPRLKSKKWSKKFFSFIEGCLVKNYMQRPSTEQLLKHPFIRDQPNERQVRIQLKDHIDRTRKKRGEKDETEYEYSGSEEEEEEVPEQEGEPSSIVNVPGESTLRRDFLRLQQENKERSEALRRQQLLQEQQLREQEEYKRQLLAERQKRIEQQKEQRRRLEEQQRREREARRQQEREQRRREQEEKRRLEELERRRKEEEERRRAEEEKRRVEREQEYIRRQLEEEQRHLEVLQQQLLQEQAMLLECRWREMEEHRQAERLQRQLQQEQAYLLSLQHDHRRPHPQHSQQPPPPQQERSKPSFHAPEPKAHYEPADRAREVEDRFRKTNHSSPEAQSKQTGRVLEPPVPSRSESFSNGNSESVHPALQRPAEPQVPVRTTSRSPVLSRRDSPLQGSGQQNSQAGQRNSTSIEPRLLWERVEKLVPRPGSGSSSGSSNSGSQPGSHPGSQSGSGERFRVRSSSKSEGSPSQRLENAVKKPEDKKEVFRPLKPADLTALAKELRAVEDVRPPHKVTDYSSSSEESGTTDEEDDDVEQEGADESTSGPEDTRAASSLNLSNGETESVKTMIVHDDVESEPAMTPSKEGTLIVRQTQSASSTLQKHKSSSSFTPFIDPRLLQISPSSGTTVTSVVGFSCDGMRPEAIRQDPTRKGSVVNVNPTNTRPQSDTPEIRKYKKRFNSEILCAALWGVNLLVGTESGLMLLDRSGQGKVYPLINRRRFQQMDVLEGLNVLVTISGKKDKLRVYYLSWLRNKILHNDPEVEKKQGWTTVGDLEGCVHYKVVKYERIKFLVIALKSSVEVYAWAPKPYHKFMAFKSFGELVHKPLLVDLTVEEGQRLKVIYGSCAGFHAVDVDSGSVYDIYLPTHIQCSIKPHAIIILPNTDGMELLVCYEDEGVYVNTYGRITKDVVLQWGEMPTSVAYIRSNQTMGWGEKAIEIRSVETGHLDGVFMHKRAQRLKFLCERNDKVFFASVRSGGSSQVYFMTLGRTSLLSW
Description: (§1) Meanwhile, the same analogs were analyzed in a radiolabeled ATP assay (10 μM ATP; Reaction Biology Corp.) to compare the extent to which they could inhibit the activity of HGK, MLK1, or MLK3 in a cell-free environment (Table S3 and S4).

[1] = test system: human ES motor neurons carrying the ALS-causing SOD1^A4V mutation; assay: cells; assay type: cell-based; details: 72 h, 72 h; for EC50 / Emax: CPA 33 μM; for viability at 1 µM: CPA (33 μM) + compound (1 μM), read-out: Motor Neuron Survival, % untreated; for Emax: read-out: Emax (MN survival % untreated)
Description: Next, survival assays were performed with all the analogs at once to generate a low-variability dataset. All compounds were evaluated at concentrations ranging from 0.1-3.0 μM (five-point dilution) in three technical replicates and two biological replicates.

MLK1/MAP3K9 = target: T1, MLK1/MAP3K9 (Homo sapiens, UniProt P80192); assay: Radiolabeled ATP kinase assay (Reaction Biology Corp.), MLK1; assay type: biochemical; details: [Cmpd] 0.1 μM, 10 μM ATP
T1 construct: purchased Reaction Biology Corp
T1 sequence (P80192 whole entry): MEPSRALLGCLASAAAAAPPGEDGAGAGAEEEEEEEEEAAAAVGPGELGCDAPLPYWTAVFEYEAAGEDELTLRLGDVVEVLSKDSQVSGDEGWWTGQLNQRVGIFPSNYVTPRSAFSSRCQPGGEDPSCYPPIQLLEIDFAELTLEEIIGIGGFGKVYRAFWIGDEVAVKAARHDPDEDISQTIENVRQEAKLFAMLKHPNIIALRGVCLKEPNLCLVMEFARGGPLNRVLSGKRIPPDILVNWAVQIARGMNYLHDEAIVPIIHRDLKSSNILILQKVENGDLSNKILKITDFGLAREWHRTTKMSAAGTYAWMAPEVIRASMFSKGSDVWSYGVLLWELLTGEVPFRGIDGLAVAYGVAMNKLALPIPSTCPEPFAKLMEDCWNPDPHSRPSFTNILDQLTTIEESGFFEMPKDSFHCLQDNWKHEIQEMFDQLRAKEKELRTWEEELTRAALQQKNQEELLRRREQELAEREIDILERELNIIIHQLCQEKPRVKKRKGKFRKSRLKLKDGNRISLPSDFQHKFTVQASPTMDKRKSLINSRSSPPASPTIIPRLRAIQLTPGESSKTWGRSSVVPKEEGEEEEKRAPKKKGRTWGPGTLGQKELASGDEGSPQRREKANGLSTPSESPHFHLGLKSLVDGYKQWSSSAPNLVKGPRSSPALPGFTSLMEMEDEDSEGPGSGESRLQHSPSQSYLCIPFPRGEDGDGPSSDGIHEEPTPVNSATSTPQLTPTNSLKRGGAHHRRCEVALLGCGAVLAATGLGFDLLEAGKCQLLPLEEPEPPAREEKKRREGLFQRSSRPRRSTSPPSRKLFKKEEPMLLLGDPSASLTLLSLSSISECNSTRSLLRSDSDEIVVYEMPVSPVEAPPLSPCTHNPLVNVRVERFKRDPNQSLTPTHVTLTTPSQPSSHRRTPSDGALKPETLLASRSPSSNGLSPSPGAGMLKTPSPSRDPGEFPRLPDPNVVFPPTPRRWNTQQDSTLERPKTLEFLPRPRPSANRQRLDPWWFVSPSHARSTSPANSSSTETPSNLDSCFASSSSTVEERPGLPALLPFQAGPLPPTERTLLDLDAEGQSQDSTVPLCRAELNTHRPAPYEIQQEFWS
Description: as §1

MLK3/MAP3K11 = target: T2, MLK3/MAP3K11 (Homo sapiens, UniProt Q16584); assay: Radiolabeled ATP kinase assay (Reaction Biology Corp.), MLK3; assay type: biochemical; details: [Cmpd] 0.1 μM; 10 μM ATP
T2 construct: purchased Reaction Biology Corp
T2 sequence (Q16584 whole entry): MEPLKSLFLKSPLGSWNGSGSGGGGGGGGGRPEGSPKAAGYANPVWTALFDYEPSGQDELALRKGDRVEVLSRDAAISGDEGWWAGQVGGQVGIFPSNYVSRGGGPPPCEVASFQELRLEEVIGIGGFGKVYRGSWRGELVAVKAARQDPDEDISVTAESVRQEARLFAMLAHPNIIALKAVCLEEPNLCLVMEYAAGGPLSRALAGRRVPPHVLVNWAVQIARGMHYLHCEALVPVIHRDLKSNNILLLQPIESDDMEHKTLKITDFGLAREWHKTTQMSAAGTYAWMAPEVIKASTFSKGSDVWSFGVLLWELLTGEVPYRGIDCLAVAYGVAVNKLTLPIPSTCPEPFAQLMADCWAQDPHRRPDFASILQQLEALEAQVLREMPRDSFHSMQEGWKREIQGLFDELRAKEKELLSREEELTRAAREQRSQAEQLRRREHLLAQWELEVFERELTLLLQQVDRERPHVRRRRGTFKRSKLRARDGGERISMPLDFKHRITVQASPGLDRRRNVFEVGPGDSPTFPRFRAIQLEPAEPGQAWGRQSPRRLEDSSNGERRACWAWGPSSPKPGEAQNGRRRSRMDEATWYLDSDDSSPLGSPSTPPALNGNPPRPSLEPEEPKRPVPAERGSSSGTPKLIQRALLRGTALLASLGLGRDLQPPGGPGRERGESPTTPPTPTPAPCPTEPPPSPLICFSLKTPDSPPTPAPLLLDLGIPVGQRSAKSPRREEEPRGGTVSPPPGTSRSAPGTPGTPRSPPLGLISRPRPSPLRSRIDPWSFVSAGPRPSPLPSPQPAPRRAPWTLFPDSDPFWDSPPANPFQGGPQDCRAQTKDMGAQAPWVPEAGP
Description: as §1

[2] = Homo sapiens, Neuron, read-out: EC50
[3] = read-out: % Enzyme Activity Remaining (relative to DMSO controls), MLK1/MAP3K9, Data 1
[4] = read-out: % Enzyme Activity Remaining (relative to DMSO controls), MLK1/MAP3K9, Data 2

SMILES | remaining activity at 0.025 µM (HGK/MAP4K4) [%] | remaining activity at 0.1 µM (HGK/MAP4K4) [%] | EC50 [1, 2] [nM] | viability at 1 µM ([1]; Homo sapiens, Neuron) [%] | Emax ([1]; Homo sapiens, Neuron) [%] | remaining activity at 0.1 µM (MLK1/MAP3K9; [3]) [%] | remaining activity at 0.1 µM (MLK1/MAP3K9; [4]) [%] | % Enzyme Activity Remaining (relative to DMSO controls), MLK3/MAP3K11, Data 1 (MLK3/MAP3K11) [%] | % Enzyme Activity Remaining (relative to DMSO controls), MLK3/MAP3K11, Data 2 (MLK3/MAP3K11) [%] | EC50 [1]
CN1CCN(Cc2ccc(-c3cnc4[nH]cc(-c5ccc(Cl)cc5Cl)c4c3)cc2)CC1 [Compound 7ae, 3-(2,4-Dichlorophenyl)-5-(4-((4-methylpiperazin-1-yl)methyl)phenyl)-1H-pyrrolo[2,3-b]pyridine] | 67.9 | 42.7 | 533 | 32 | 32 | 92.5 | 91.8 | 84.17 | 86.93 | –
Cc1ccc(C)c(-c2c[nH]c3ncc(-c4ccc(CN5CCN(C)CC5)cc4)cc23)c1 [Compound 7af, 3-(2,5-Dimethylphenyl)-5-(4-((4-methylpiperazin-1-yl)methyl)phenyl)-1H-pyrrolo[2,3-b]pyridine] | 69 | 38.7 | 1340 | 38.6 | 67.5 | 92.6 | 90.6 | 75.32 | 81.31 | –
CN1CCN(Cc2ccc(-c3cnc4[nH]cc(-c5ccc6cnn(C)c6c5)c4c3)cc2)CC1 [Compound 7ag, 1-Methyl-6-(5-(4-((4-methylpiperazin-1-yl)methyl)phenyl)-1H-pyrrolo[2,3-b]pyridin-3-yl)-1H-indazole] | 32.5 | 7.91 | 418 | 73.3 | 88 | 50.9 | 50 | 54.67 | 52.80 | –
CNC(=O)Nc1cccc(-c2c[nH]c3ncc(-c4ccc(CN5CCN(C)CC5)cc4)cc23)c1 [Compound 7ak, 1-Methyl-3-(3-(5-(4-((4-methylpiperazin-1-yl)methyl)phenyl)-1H-pyrrolo[2,3-b]pyridin-3-yl)phenyl)urea] | 41.7 | 14.2 | 650 | 78.5 | 112 | 34.2 | 32.8 | 48.06 | 48.02 | –
COC(=O)Nc1cccc(-c2c[nH]c3ncc(-c4ccc(CN5CCN(C)CC5)cc4)cc23)c1 [Compound 7al, Methyl (3-(5-(4-((4-methylpiperazin-1-yl)methyl)phenyl)-1H-pyrrolo[2,3-b]pyridin-3-yl)phenyl)carbamate] | 33.8 | 6.76 | 670 | – | 113 | 33.4 | 32.7 | 32.96 | 30.90 | –
CNC(=O)Nc1ccc(-c2c[nH]c3ncc(-c4ccc(CN5CCN(C)CC5)cc4)cc23)cc1 [Compound 7am, 1-Methyl-3-(4-(5-(4-((4-methylpiperazin-1-yl)methyl)phenyl)-1H-pyrrolo[2,3-b]pyridin-3-yl)phenyl)urea] | 56 | 17.7 | 948 | 80 | 122 | 51 | 51.2 | 49.77 | 46.17 | –
COC(=O)Nc1ccc(-c2c[nH]c3ncc(-c4ccc(CN5CCN(C)CC5)cc4)cc23)cc1 [Compound 7an, Methyl (4-(5-(4-((4-methylpiperazin-1-yl)methyl)phenyl)-1H-pyrrolo[2,3-b]pyridin-3-yl)phenyl)carbamate] | 39.9 | 10.2 | 534 | 75 | 100 | 68.7 | 65.4 | 65.74 | 63.06 | –
COc1ccc(COc2ccc(-c3c[nH]c4ncc(-c5ccc(CN6CCN(C)CC6)cc5)cc34)cc2)cc1 [Compound 7ao, 3-(4-((4-Methoxybenzyl)oxy)phenyl)-5-(4-((4-methylpiperazin-1-yl)methyl)phenyl)-1H-pyrrolo[2,3-b]pyridine] | 21.3 | 1.98 | – | 95.9 | 95.9 | 49 | 47.1 | 35.75 | 32.77 | Ambiguous
CN1CCN(Cc2ccc(-c3cnc4[nH]cc(-c5cccc(OCc6ccccc6)c5)c4c3)cc2)CC1 [Compound 7ar, 3-(3-(Benzyloxy)phenyl)-5-(4-((4-methylpiperazin-1-yl)methyl)phenyl)-1H-pyrrolo[2,3-b]pyridine] | 55.5 | 27.4 | 583 | 37.4 | 37.4 | 70.1 | 68 | 44.17 | 45.09 | –
CN1CCN(Cc2ccc(-c3cnc4[nH]cc(-c5ccc(F)c(C(=O)NCc6ccco6)c5)c4c3)cc2)CC1 [Compound 7av, 2-Fluoro-N-(furan-2-ylmethyl)-5-(5-(4-((4-methylpiperazin-1-yl)methyl)phenyl)-1H-pyrrolo[2,3-b]pyridin-3-yl)benzamide] | 88.8 | 51.2 | 1050 | 34.5 | 53.5 | 86 | 84.2 | 84.24 | 86.99 | –
CN1CCN(Cc2ccc(-c3cnc4[nH]cc(-c5ccc(NC(=O)NC6CCCCC6)cc5)c4c3)cc2)CC1 [Compound 7aw, 1-Cyclohexyl-3-(4-(5-(4-((4-methylpiperazin-1-yl)methyl)phenyl)-1H-pyrrolo[2,3-b]pyridin-3-yl)phenyl)urea] | 85.4 | 58.5 | 406 | 27.5 | 27.5 | 79.8 | 79.4 | 65.23 | 66.67 | –
C[C@@H](NC(=O)Nc1cccc(-c2c[nH]c3ncc(-c4ccc(CN5CCN(C)CC5)cc4)cc23)c1)c1ccccc1 [Compound 7ax, (R)-1-(3-(5-(4-((4-methylpiperazin-1-yl)methyl)phenyl)-1H-pyrrolo[2,3-b]pyridin-3-yl)phenyl)-3-(1-phenylethyl)urea] | 93.6 | 78.7 | 1440 | 17.4 | 35.5 | 93.5 | 92.3 | 90.99 | 86.58 | –
CN1CCN(Cc2ccc(-c3cnc4[nH]cc(-c5cccc(NC(=O)NCc6ccco6)c5)c4c3)cc2)CC1 [Compound 7ay, 1-(Furan-2-ylmethyl)-3-(3-(5-(4-((4-methylpiperazin-1-yl)methyl)phenyl)-1H-pyrrolo[2,3-b]pyridin-3-yl)phenyl)urea] | 93.8 | 79 | 91.2 | 4.58 | 9.29 | 88.5 | 91.8 | 84.43 | 83.57 | –
COCCNC(=O)Nc1cccc(-c2c[nH]c3ncc(-c4ccc(CN5CCN(C)CC5)cc4)cc23)c1 [Compound 7az, 1-(2-Methoxyethyl)-3-(3-(5-(4-((4-methylpiperazin-1-yl)methyl)phenyl)-1H-pyrrolo[2,3-b]pyridin-3-yl)phenyl)urea] | 87.1 | 65 | 2990 | 22.9 | 51.5 | 79 | 78.5 | 79.28 | 80.78 | –
